The values that follow come from US10670605B2, “Cysteine reactive probes and uses thereof” (The Scripps Research Institute, priority 2015, dated 2020).

Experiment in all cases: Competitive isoTOP-ABPP in situ (fragment-treated cells)
Holding throughout (format): cell-based

For assay [1], the target named is T1, cysteines in MDA-MB-231 and Ramos cells (Homo sapiens, UniProt P25205).
T1 sequence (P25205 1-808): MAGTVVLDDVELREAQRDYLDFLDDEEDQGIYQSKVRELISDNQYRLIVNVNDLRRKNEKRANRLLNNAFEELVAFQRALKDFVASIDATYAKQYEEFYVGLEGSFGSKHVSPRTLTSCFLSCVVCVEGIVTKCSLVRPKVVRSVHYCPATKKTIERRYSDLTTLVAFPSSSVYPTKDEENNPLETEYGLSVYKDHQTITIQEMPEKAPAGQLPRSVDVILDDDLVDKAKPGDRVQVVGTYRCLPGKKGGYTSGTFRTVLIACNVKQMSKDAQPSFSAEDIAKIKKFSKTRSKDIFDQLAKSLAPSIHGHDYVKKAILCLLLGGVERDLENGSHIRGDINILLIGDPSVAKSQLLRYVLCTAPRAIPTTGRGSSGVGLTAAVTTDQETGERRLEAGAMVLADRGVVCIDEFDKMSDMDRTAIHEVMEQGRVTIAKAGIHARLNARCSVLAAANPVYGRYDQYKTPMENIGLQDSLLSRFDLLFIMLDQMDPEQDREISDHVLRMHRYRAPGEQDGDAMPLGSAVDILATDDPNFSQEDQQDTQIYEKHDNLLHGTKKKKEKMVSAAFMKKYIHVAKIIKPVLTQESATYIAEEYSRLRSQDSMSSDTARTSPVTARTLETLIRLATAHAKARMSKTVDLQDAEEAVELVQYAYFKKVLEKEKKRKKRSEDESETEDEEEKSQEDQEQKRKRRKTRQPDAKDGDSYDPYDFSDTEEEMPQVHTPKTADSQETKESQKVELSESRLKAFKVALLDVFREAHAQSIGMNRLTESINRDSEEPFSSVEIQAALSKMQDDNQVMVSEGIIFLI
Method: (§1) Fragments 4 and 11 were screened at 100 μM in situ. […] Site-specific engagement of electrophilic fragments was assessed by blockade of IA-alkyne probe labeling. […] Ratios for unique peptide entries were calculated for each experiment; overlapping peptides with the same modified cysteine (e.g. different charge states, MudPIT chromatographic steps or tryptic termini) were grouped together and the median ratio was reported as the final ratio (R). The peptide ratios reported by CIMAGE were further filtered to ensure the removal or correction of low quality ratios in each individual dataset. […] R values were calculated and individual datasets were filtered as described above (R value calculation and processing).

Assay [2] has as its target T2, cysteines in MDA-MB-231 and Ramos cells (Homo sapiens, UniProt O75521).
T2 sequence (O75521 39-394): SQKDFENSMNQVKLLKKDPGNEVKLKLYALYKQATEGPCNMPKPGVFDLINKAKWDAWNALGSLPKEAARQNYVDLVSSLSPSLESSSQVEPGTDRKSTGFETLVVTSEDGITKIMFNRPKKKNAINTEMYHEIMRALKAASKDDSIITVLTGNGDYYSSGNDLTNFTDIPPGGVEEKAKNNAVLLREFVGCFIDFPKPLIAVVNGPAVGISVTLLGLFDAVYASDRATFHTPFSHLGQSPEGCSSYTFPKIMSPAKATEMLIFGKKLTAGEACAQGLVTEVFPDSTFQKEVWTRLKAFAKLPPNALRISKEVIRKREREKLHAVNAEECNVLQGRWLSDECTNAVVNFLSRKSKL
Method: as §1

The target of assay [3] is T3, cysteines in MDA-MB-231 and Ramos cells (Homo sapiens, UniProt Q96S55).
T3 sequence (Q96S55 1-665): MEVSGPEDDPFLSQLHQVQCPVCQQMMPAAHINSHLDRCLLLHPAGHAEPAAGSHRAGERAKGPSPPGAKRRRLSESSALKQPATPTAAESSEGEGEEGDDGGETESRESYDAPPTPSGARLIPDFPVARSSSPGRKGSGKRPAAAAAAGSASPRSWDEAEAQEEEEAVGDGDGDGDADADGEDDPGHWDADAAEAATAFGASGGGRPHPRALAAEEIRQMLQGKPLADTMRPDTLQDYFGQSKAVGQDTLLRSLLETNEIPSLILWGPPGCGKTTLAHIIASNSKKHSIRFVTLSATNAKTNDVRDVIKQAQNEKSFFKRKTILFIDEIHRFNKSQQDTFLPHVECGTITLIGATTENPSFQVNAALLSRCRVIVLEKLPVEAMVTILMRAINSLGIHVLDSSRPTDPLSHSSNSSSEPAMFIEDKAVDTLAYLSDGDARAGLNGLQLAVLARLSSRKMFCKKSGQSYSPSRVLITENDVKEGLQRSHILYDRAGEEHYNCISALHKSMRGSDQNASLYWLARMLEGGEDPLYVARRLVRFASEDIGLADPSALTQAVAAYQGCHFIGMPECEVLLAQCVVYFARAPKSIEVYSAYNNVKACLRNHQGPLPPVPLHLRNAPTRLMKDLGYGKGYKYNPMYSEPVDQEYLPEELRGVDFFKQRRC
Conditions: 200 μM, insitu, 231.
Method: as §1

For assay [4], the target named is cysteines in MDA-MB-231 and Ramos cells (Homo sapiens, UniProt Q9Y696).
Sequence of cysteines in MDA-MB-231 and Ramos cells (Homo sapiens, UniProt Q9Y696) (Q9Y696 whole entry): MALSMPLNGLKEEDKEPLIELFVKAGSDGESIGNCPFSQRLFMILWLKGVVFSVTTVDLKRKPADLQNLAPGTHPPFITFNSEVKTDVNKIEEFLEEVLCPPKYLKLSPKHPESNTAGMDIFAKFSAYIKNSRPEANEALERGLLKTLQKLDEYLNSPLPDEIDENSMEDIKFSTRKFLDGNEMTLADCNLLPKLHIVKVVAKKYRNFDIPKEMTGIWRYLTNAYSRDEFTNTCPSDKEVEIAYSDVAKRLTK
Method: as §1
Assay [5] deals with T4, cysteines in MDA-MB-231 and Ramos cells (Homo sapiens, UniProt P49588).
T4 sequence (P49588 1-968): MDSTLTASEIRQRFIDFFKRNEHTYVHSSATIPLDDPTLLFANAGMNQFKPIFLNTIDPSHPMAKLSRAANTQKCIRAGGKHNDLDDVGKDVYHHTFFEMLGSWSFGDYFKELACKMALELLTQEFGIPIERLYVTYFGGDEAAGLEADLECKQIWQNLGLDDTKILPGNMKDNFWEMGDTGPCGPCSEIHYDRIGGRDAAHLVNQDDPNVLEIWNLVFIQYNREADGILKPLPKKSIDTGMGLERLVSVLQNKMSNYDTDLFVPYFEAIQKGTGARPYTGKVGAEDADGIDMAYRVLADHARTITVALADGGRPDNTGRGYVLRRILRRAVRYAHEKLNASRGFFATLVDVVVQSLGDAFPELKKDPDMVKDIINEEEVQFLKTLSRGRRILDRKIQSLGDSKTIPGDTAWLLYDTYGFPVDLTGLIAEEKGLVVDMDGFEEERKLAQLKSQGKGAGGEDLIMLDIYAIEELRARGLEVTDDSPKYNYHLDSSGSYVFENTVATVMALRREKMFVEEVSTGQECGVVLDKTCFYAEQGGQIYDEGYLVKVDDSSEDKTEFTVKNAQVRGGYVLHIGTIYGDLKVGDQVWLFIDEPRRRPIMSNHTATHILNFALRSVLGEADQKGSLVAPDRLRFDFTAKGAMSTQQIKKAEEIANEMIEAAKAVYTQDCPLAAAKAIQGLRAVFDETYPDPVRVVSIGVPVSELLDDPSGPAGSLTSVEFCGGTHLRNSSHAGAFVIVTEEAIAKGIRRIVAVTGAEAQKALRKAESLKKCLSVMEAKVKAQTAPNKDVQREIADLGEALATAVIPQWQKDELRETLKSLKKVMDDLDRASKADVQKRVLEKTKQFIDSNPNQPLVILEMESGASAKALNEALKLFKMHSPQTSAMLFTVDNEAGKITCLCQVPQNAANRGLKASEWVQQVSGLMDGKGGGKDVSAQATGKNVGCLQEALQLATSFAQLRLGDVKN
Method: as §1

Each structure is given as a SMILES string.

For `O=C(CCl)NC12CC3CC(CC(C3)C1)C2` [compound 21], the “isoTOP-ABPP ratio P25205_C119” value in assay [1] (200 μM, insitu, 231) turned out to be 1.1. Moreover, in assay [2] (200 μM, insitu, 231), the “isoTOP-ABPP ratio O75521_C312” value is 1.6 and the “isoTOP-ABPP ratio O75521_C380” value amounted to 1.8. Moreover, the “isoTOP-ABPP ratio Q96S55_C272” value in assay [3] turned out to be 1.3. For the same molecule, the “isoTOP-ABPP ratio Q9Y696_C35” value in assay [4] (200 μM, insitu, 231) amounted to 1.1. In assay [5] (200 μM, insitu, 231), the “isoTOP-ABPP ratio P49588_C773” value stood at 1.1.

In the case of `COc1ccc2c(c1)CCCN2C(=O)CCl` [compound 2], the “isoTOP-ABPP reactivity P25205_C119 MCM3” value in assay [1] (200 μM, insitu, 231) is recorded as 3.5. Moreover, in assay [2] (200 μM, insitu, 231), the “isoTOP-ABPP reactivity O75521_C312 ECI2” value is recorded as 0.7 and the “isoTOP-ABPP reactivity O75521_C380 ECI2” value worked out at 0.6. For the same molecule, the “isoTOP-ABPP reactivity Q96S55_C272 WRNIP1” value in assay [3] is given as 2.2. Moreover, in assay [4] (200 μM, insitu, 231), the “isoTOP-ABPP reactivity Q9Y696_C35 CLIC4” value was 1.7.

In the case of `Cn1cc(S(=O)(=O)N2CCOCC2)cc1C(=O)NC(=O)CCl` [compound 11], the “isoTOP-ABPP ratio P25205_C119” value in assay [1] (100 μM in situ 231) is 0.7. The “isoTOP-ABPP ratio O75521_C380” value in assay [2] (100 μM in situ 231) was found to be 0.8. In assay [4] (100 μM in situ 231), the “isoTOP-ABPP ratio Q9Y696_C35” value is 1.9. Moreover, in assay [5] (100 μM in situ 231), the “isoTOP-ABPP ratio P49588_C773” value amounted to 0.9.

On to `COc1ccccc1OCCNC(=O)CCl` [compound 28], for which the “isoTOP-ABPP ratio O75521_C380” value in assay [2] (200 μM, insitu, 231) was found to be 0.8. In addition, in assay [3], the “isoTOP-ABPP ratio Q96S55_C272” value worked out at 0.5. For the same molecule, the “isoTOP-ABPP ratio Q9Y696_C35” value in assay [4] (200 μM, insitu, 231) is recorded as 2.7.

In the case of `O=C(CCl)NCCc1c[nH]c2ccccc12` [compound 13], the “isoTOP-ABPP ratio P25205_C119” value is reported as 1.1 in assay [1] (200 μM, insitu, 231) and 1.3 in assay [1] (200 μM, insitu, ramos). Besides, the “isoTOP-ABPP ratio O75521_C312” value in assay [2] (200 μM, insitu, 231) was 0.7. The “isoTOP-ABPP ratio O75521_C380” value in assay [2] (200 μM, insitu, 231) came out at 1.0. For the same molecule, in assay [3], the “isoTOP-ABPP ratio Q96S55_C272” value is 0.7. In addition, the “isoTOP-ABPP ratio Q9Y696_C35” value is 2.3 in assay [4] (200 μM, insitu, 231) and 3.2 in assay [4] (200 μM, insitu, ramos). Also, the “isoTOP-ABPP ratio P49588_C773” value in assay [5] (200 μM, insitu, 231) came out at 0.8; in assay [5] (200 μM, insitu, ramos) it was 1.1.

As to `Cc1ccc(C=C(C#N)C(=O)NCCN2CCOCC2)cc1` [compound 41], the “isoTOP-ABPP ratio P25205_C119” value in assay [1] (200 μM, insitu, 231) was found to be 0.9. Moreover, the “isoTOP-ABPP ratio O75521_C380” value in assay [2] (200 μM, insitu, 231) is recorded as 1.1. The “isoTOP-ABPP ratio Q96S55_C272” value in assay [3] was 0.8. Besides, the “isoTOP-ABPP ratio Q9Y696_C35” value in assay [4] (200 μM, insitu, 231) was determined as 0.6. In assay [5] (200 μM, insitu, 231), the “isoTOP-ABPP ratio P49588_C773” value came to 0.7.

Turning to `C=CC(=O)Nc1cc(F)c(N2CCN(C(=O)OC(C)(C)C)CC2)c(F)c1` [compound 38], in assay [1] (200 μM, insitu, 231), the “isoTOP-ABPP ratio P25205_C119” value was 0.9. In addition, in assay [2] (200 μM, insitu, 231), the “isoTOP-ABPP ratio O75521_C312” value was 1.1 and the “isoTOP-ABPP ratio O75521_C380” value was 0.9. Besides, in assay [3], the “isoTOP-ABPP ratio Q96S55_C272” value is listed as 1.3. Also, in assay [4] (200 μM, insitu, 231), the “isoTOP-ABPP ratio Q9Y696_C35” value came to 1.0. In addition, the “isoTOP-ABPP ratio P49588_C773” value in assay [5] (200 μM, insitu, 231) was determined as 0.7.

`C=CC(=O)N(Cc1cccnc1)c1cc(C(F)(F)F)cc(C(F)(F)F)c1` [compound 31]: the “isoTOP-ABPP ratio P25205_C119” value in assay [1] (200 μM, insitu, 231) is 0.5. Moreover, in assay [4] (200 μM, insitu, 231), the “isoTOP-ABPP ratio Q9Y696_C35” value was 0.6. Besides, the “isoTOP-ABPP ratio P49588_C773” value in assay [5] (200 μM, insitu, ramos) was 1.2.
